The values that follow come from ChEMBL document CHEMBL5584343, “Cerastecin Inhibition of the Lipooligosaccharide Transporter MsbA to Combat Acinetobacter baumannii: From Screening Impurity to In Vivo Efficacy” (J Med Chem, 2024).

Converted amounts (≈) assume the structure as drawn. Where only a bound is given, the exact number is not on record here.

In data set [1] the test system is Acinetobacter baumannii. The data set is described as follows: Antibacterial activity against Acinetobacter baumannii ATCC19606 assessed as bacterial growth inhibition incubated for 18 to 20 hrs by microbroth dilution method. The data set is classed as functional. The following applies: time 18-20 hrs.
The nature of data set [2]: Cytotoxicity against GFP fused human MT4 cells cultured under serum free condition for 24 hrs by CellTiter-Glo assay. The data set is classed as toxicity, cell-based. The following applies: GFP fused MT4 cells.
Data set [3] in a line: Inhibition of wildtype Acinetobacter baumannii MsbA preincubated for 30 mins followed by ATP addition and measured after 1 hrs by Transcreener ADP2 F1 assay.
A short description of data set [4]: Plasma protein binding in C57BL/6 mouse at 1000 to 100000 ng/ml by equilibrium dialysis based LC-MS/MS analysis. The format is ADME, cell-free. The following applies: dose 1000-100000 ng/ml, read-out: PPB (converted).
The test system of data set [5] is Acinetobacter baumannii. The data set is described as follows: Antibacterial activity against Acinetobacter baumannii ATCC19606 incubated for 18 to 20 hrs in presence of 10% human serum by microbroth dilution method. The format is functional. The settings on record: time 18-20 hrs.
In data set [6] the test system is Acinetobacter baumannii. The data set is described as follows: Selectivity ratio of MIC95 for antibacterial activity against Acinetobacter baumannii ATCC19606 in the presence of 10% human serum to MIC95 for antibacterial activity against Acinetobacter baumannii ATCC19606. The data set is classed as functional.
A short description of data set [7]: AUC (0 to infinity) in male C57BL/6 mouse at 300 mg/kg, sc administered once in a day and measured after 24 hrs by LC-MS/MS analysis. The format is ADME, organism-based. The following applies: mouse, in vivo, sc, 300 mg/kg, 24 h.
Data set [8] can be described thus: AUC (0 to infinity) in male C57BL/6 mouse at 300 mg/kg, sc administered 3 times a day with 3 hrs interval and measured after 24 hrs by LC-MS/MS analysis. The data set is classed as ADME, organism-based. The settings on record: mouse, in vivo, sc, 300 mg/kg, 24 h.
Data set [9] can be described thus: Cmax in male C57BL/6 mouse at 300 mg/kg, sc administered once in a day and measured after 24 hrs by LC-MS/MS analysis. The data set is classed as ADME, organism-based. The following applies: in vivo.
Data set [10] is described as follows: Cmax in male C57BL/6 mouse at 300 mg/kg, sc administered 3 times a day with 3 hrs interval and measured after 24 hrs by LC-MS/MS analysis. The data set is classed as ADME, organism-based. The following applies: in vivo.
Data set [11] in a line: Plasma protein binding in human at 1000 to 100000 ng/ml by equilibrium dialysis based LC-MS/MS analysis. The format is ADME, cell-free. The following applies: dose 1000-100000 ng/ml, read-out: PPB (converted).
Data set [12] in a line: Plasma protein binding in dog at 1000 to 100000 ng/ml by equilibrium dialysis based LC-MS/MS analysis. The format is ADME, cell-free, Canis lupus familiaris. The following applies: dose 1000-100000 ng/ml, read-out: PPB (converted).
Data set [13] deals with Acinetobacter baumannii. The data set is described as follows: Antibacterial activity against Acinetobacter baumannii CLB21655 infected in female DBA mouse blood stream infection model assessed as fold change in colony forming units in spleen at 300 mg/kg, sc pre-infected with bacteria for 0.5 hrs followed by once daily compound administration and measured after 8 hrs relative to control. The data set is classed as functional.

Data set [14] has as its system Acinetobacter baumannii. Description: Antibacterial activity against Acinetobacter baumannii CLB21655 infected in female DBA mouse lung infection model assessed as fold change in colony forming units in lung at 300 mg/kg, sc pre-infected with bacteria for 2 hrs followed by thrice daily compound administration with 6 hrs interval and measured after 24 hrs relative to control. The data set is classed as functional.

In data set [15] the test system is Acinetobacter baumannii. The data set is described as follows: Antibacterial activity against Acinetobacter baumannii ATCC19606 incubated for 18 to 20 hrs in presence of 50% mouse serum by microbroth dilution method. The data set is classed as functional. The settings on record: time 18-20 hrs.
Data set [16] concerns Acinetobacter baumannii. Description: Antibacterial activity against Acinetobacter baumannii CLB21655 infected in female DBA mouse blood stream infection model assessed as reduction in bacterial burden in spleen at 300 mg/kg, sc pre-infected with bacteria for 0.5 hrs followed by once daily compound administration and measured after 8 hrs (reference value: 6.5 log10CFU/g). The format is functional.

Data set [17] relates to Acinetobacter baumannii. The data set is described as follows: Antibacterial activity against Acinetobacter baumannii CLB21655 infected in female DBA mouse lung infection model assessed as reduction in bacterial burden in lung at 300 mg/kg, sc pre-infected with bacteria for 2 hrs followed by thrice daily compound administration with 6 hrs interval and measured after 24 hrs (reference value: 6.3 log10CFU/g). The data set is classed as functional.

For the compound `O=C(O)c1cc(CN2CC(Oc3ccc(NS(=O)(=O)c4cnn(-c5ccc(F)cc5)c4)c(C(=O)O)c3)C2)ccc1NS(=O)(=O)c1cnn(-c2ccc(F)cc2)c1`, the results for the MIC95 in the data set on Acinetobacter baumannii [1], with Acinetobacter baumannii [5] and with Acinetobacter baumannii [15] were 0.277 µM (≈ 0.223 µg/mL), 6.25 µM and 50 µM, respectively. The same compound registered an EC50 at 24 h in data set [2] above 42000 nM. The compound also displayed an EC50 in data set [3] of 69 nM. Further, the fraction unbound in [4] was 0.002; in [11], 0.006; in data set [12], 0.004. Besides, the Selectivity ratio in the data set with Acinetobacter baumannii [6] was determined as 23. Besides, the AUC in data set [7] was found to be 2270 µM·h; in [8], 22200 µM·h. Moreover, the Cmax in data set [9] was found to be 662 µM; in data set [10] it was 626 µM. In addition, the figures for the “fold change (FC)” value in the data set on Acinetobacter baumannii [13] and in the data set on Acinetobacter baumannii [14] were 3.2 and 1.9, respectively. Further, the Activity with Acinetobacter baumannii [16] came out at 3.3 log10CFU/g; with Acinetobacter baumannii [17], 4.4 log10CFU/g.
